Results reported in patent publication US20220378923A1, “BET DEGRADER” (KYOWA KIRIN CO., LTD., priority 2019, published 2022).
pIC50: −log10 of the molar value.

Test system: DCAF16 KO SU-DHL-4 cells
Assay: Inhibitory effect on cell viability using SU-DHL-4 DCAF16 knock out (KO) cell line (Test Example 6)
Format: cell-based, human
Details: for Activity Attenuation Ratio: (SU-DHL-4 DCAF16 KO IC50)/(SU-DHL-4 WT IC50); for pIC50: DCAF16 KO SU-DHL-4 cells, 72 hours, Cell Counting Kit-8, 50% inhibition of cell viability
Method in brief: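 SU-DHL-4 DLBCL cells carrying lentiviral Cas9 plus DCAF16-targeting sgRNA (three KO strains; non-targeting control strain), seeded 2000 cells/well, pre-cultured 18–25 h, then given 9-step compound dilutions (0.1% DMSO final) for 72 h at 37° C. Viability read by CCK-8 colorimetric assay.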

Structure (SMILES): CCC(=O)N1c2ccccc2[C@H](Nc2ccc(C(=O)N3CC4CC3CN4C(=O)c3ccc(N[C@@H]4C[C@H](C)N(C(=O)CC)c5ccccc54)cc3)cc2)C[C@@H]1C [Compound 1k, 1,1′-{(2S,2'S,4R,4′R)-{[(2,5-Diazabicyclo[2.2.1]heptane-2,5-dicarbonyl)bis(4,1-phenylene)]bis(azanediyl)}bis[2-methyl-3,4-dihydroquinoline-4,1(2H)-diyl]}bis(propan-1-one)]
- Activity Attenuation Ratio: 34
- pIC50 (Homo sapiens): 8.13

Structure (SMILES): CCC(=O)N1c2ccccc2[C@H](Nc2ccc(C(=O)NC3CCN(C(=O)c4ccc(N[C@@H]5C[C@H](C)N(C(=O)CC)c6ccccc65)cc4)CC3)cc2)C[C@@H]1C (relative stereo) [Compound 1c, 4-{[(2S*,4R*)-2-Methyl-1-propionyl-1,2,3,4-tetrahydroquinolin-4-yl]amino}-N-[1-(4-{[(2S*,4R*)-2-methyl-1-propionyl-1,2,3,4-tetrahydroquinolin-4-yl]amino}benzoyl)piperidin-4-yl]benzamide]
- Activity Attenuation Ratio: 131
- pIC50 (Homo sapiens): 6.41

Structure (SMILES): CCC(=O)N1c2ccccc2[C@H](Nc2ccc(NC(=O)C#CCNC(=O)C3CCC(N[C@@H]4C[C@H](C)N(C(=O)CC)c5ccccc54)CC3)cc2)C[C@@H]1C (relative stereo) [Compound 8g, (1R,4r)-4-(((2S*,4R*)-2-Methyl-1-propionyl-1,2,3,4-tetrahydroquinolin-4-yl)amino)-N-(4-((4-(((2S,4R)-2-methyl-1-propionyl-1,2,3,4-tetrahydroquinolin-4-yl)amino)phenyl)amino)-4-oxobut-2-yn-1-yl)cyclohexane-1-carboxamide]
- Activity Attenuation Ratio: 3174
- pIC50: 7.59

Structure (SMILES): CCC(=O)N1c2ccccc2[C@H](NCCCCC(=O)NCc2cn(-c3ccc(N[C@@H]4C[C@H](C)N(C(=O)CC)c5ccccc54)cc3)nn2)C[C@@H]1C (relative stereo) [Compound 12f, 5-(((2S*,4R*)-2-Methyl-1-propionyl-1,2,3,4-tetrahydroquinolin-4-yl)amino)-N-((1-(4-(((2S,4R)-2-methyl-1-propionyl-1,2,3,4-tetrahydroquinolin-4-yl)amino)phenyl)-1H-1,2,3-triazol-4-yl)methyl)pentane amide]
- Activity Attenuation Ratio: >40284
- pIC50: < 5.00

Structure (SMILES): CCC(=O)N1c2ccccc2[C@H](Nc2ccc(NC(=O)CCSc3ccc(N[C@@H]4C[C@H](C)N(C(=O)CC)c5ccccc54)cc3)cc2)C[C@@H]1C (relative stereo) [Compound 4e, N-(4-{[(2S*,4R*)-2-Methyl-1-propionyl-1,2,3,4-tetrahydroquinolin-4-yl]amino}phenyl)-3-[(4-{[(2S,4R)-2-methyl-1-propionyl-1,2,3,4-tetrahydroquinolin-4-yl]amino}phenyl)thio]propanamide]
- Activity Attenuation Ratio: 250
- pIC50 (Homo sapiens): 7.12

Structure (SMILES): CCC(=O)N1c2ccccc2[C@H](Nc2ccc(C(=O)NCCNS(=O)(=O)c3ccc(N[C@@H]4C[C@H](C)N(C(=O)CC)c5ccccc54)cc3)cc2)C[C@@H]1C [Compound 4d, 4-{[(2S,4R)-2-Methyl-1-propionyl-1,2,3,4-tetrahydroquinolin-4-yl]amino}-N-{2-[(4-{[(2S,4R)-2-methyl-1-propionyl-1,2,3,4-tetrahydroquinolin-4-yl]amino}phenyl)sulfonamide]ethyl}benzamide]
- Activity Attenuation Ratio: 365
- pIC50: 5.82

Structure (SMILES): Cc1sc2c(c1C)C(c1ccc(C(=O)NCCCNC(=O)c3ccc(C4=N[C@@H](CC(=O)OC(C)(C)C)c5nnc(C)n5-c5sc(C)c(C)c54)cc3)cc1)=N[C@@H](CC(=O)OC(C)(C)C)c1nnc(C)n1-2 [Compound 1b, Di-tert-butyl 2,2′-[(6S,6′S)-({[propane-1,3-diylbis(azanediyl)]bis(carbonyl)}bis(4,1-phenylene))bis(2,3,9-trimethyl-6H-thieno[3,2-f][1,2,4]triazolo[4,3-a][1,4]diazepine-4,6-diyl)]diacetate]
- Activity Attenuation Ratio: 56
- pIC50 (Homo sapiens): 7.44

Structure (SMILES): CCC(=O)N1c2ccccc2[C@H](Nc2ccc(NC(=O)CCCC(=O)Nc3ccc(Cn4c(C(=O)OCCN(C)C)cc5c4CCCC5=O)cc3)cc2)C[C@@H]1C [Compound 15a, 2-(Dimethylamino)ethyl 1-(4-(5-((4-(((2S,4R)-2-methyl-1-propionyl-1,2,3,4-tetrahydroquinolin-4-yl)amino)phenyl)amino)-5-oxopentanamide)benzyl)-4-oxo-4,5,6,7-tetrahydro-1H-indole-2-carboxylate]
- Activity Attenuation Ratio: 225
- pIC50: 7.20

Structure (SMILES): CCC(=O)N1c2ccccc2[C@H](Nc2ccc(NC(=O)CCNC(=O)c3ccc(N[C@@H]4C[C@H](C)N(C(=O)CC)c5ccccc54)cc3)cc2)C[C@@H]1C (relative stereo) [Compound 2f, 4-{[(2S,4R)-2-Methyl-1-propionyl-1,2,3,4-tetrahydroquinolin-4-yl]amino}-N-{3-[(4-{[(2S*,4R*)-2-methyl-1-propionyl-1,2,3,4-tetrahydroquinolin-4-yl]amino}phenyl)amino]-3-oxopropyl}benzamide]
- Activity Attenuation Ratio: 1111
- pIC50 (Homo sapiens): 7.00
